Experimental data taken from patent publication US6492335B1, “Glycoconjugates from modified camptothecin derivatives (20-O-linkage)” (Bayer Aktiengesellschaft, priority 1996, dated 2002).
“And” between values parts separate entries of the source, which are not always exact repeats. Equal entries are not always repeated. Structures can show the parent of a compound that is named as a salt. Where two headings read alike, the source gives them in different places.

Key:
B16F10 = experiment: Growth inhibition test (MTT) for cytotoxic properties; assay type: cell-based, mouse
Procedure: (§1) The human large intestine cell lines SW 480 and HT 29 (ATCC No. CCL 228 and HBT 38) and the mouse melanoma cell line B16F10 were grown in Roux dishes in RPMI 1640 medium with addition of 10% FCS. They were then trypsinized and taken up in RPMI plus 10% FCS to a cell count of 50,000 cells/ml. 100 μl of cell suspension/well were added to a 96 microwell plate and incubated for 1 day at 37° C. in a CO2 incubator. A further 100 μl of RPMI Medium and 1 μl of DMSO containing the test substances were then added. The growth was checked after day 3 and day 6. To this end, 40 μl of MTT solution (3-(4,5-dimethylthiazol-2-yl)-2,5-diphenyltetrazoline bromide) having a starting concentration of 5 mg/ml of H2O were added to each microwell. Incubation was carried out for 5 hours in a CO2 incubator at 37° C. The medium was then aspirated and 100 μl of i-propanol/well were added. After shaking for 30 min with 100 μl of H2O, the extinction was measured at 540 nm using a Titertek Multiscan MCC/340 (Flow).
(§2) The cytotoxic action is indicated in Table 1 as the IC50 value in each case for the SW 480 and HT 29 and B16F10 cell lines: […]

SW 480 = experiment: as above; assay type: cell-based, human
Procedure: as §1, §2

HT 29 = experiment: as above; assay type: cell-based, human
Procedure: as §1, §2

[1] = tested on: large-cell lung carcinoma LXFL 529; experiment: In vivo inhibition of tumour growth in the nude mouse model; details: for Survival time: individual mice
Procedure: (§3) For all in vivo experiments for investigation of the inhibition of tumour growth athymic nude mice (NMRI nu/nu strain) were used. The selected large-cell lung carcinoma LXFL 529 was grown by serial passage in nude mice. The human origin of the tumour was confirmed by isoenzymatic and immunohistochemical methods.
(§4) The tumour was implanted subcutaneously into both flanks of 6 to 8 week old nu/nu nude mice. The treatment was started, depending on the doubling time, as soon as the tumours had reached a diameter of 5-7 mm. The mice were assigned to the treatment group and the control group (5 mice per group with 8-10 assessable tumours) by randomization. The individual tumours of the control group all grew progessively.
(§5) The size of the tumours was measured in two dimensions by means of a slide gauge. The tumour volume, which correlated well with the cell count, was then used for all evaluations. The volume was calculated according to the formula “length×breadth×breadth/2” ([a×b^2]/2, a and b represent two diameters at right angles).
(§6) The values of the relative tumour volume (RTV) were calculated for each individual tumour by dividing the tumour size on day X with the tumour size on day 0 (at the time of randomization). The mean values of the RTV were then used for the further evaluation.
(§7) The inhibition of the increase of the tumour volume (tumour volume of the test group/control group, T/C, in per cent) was the final measured value.
(§8) The administration of the compounds was carried out intraperitoneally (i.p.) on day 1, 2 and 3 after randomization.

[2] = as above; details: NMRI nu/nu, mouse, in vivo, ip; nude mice, i.p. on day 1, 2 and 3; read-out: Maximum tolerable dose (MTD)
Procedure: as §3, §4, §5, §6, §7, §8

[3] = tested on: mouse bone marrow stem cells; experiment: Inhibition of the CSF-induced proliferation of mouse bone marrow stem cells (colony formation); details: recombinant murine GM-CSF, 7 days
Procedure: Bone marrow cells were washed out of mice femurs. 10^5 cells were incubated at 37° C. and 7% CO2 in McCoy 5A medium (0.3% agar) together with recombinant murine GM-CSF (Genzyme; stem cell colony formation) and the substances (10^−4 to 100 μg/ml). 7 days later, the colonies (<50 cells) and clusters (17-50 cells) were counted.

[4] = B16-F10, mouse melanoma cell line B16F10, MTT, read-out: IC50 B16F10
[5] = SW480, human large intestine cell line SW 480, MTT, read-out: IC50 SW 480
[6] = human large intestine cell line HT 29, MTT, read-out: IC50 HT 29
[7] = 6.25 mg/kg/day i.p. on day 1, 2 and 3
[8] = 12.5 mg/kg/day (MTD) i.p. on day 1, 2 and 3

Compound | IC50 (B16F10; [4]) | IC50 (SW 480; [5]) | IC50 (HT 29; [6]) | other results
CC[C@@]1(OC(=O)[C@H](CC(C)C)NC(=O)[C@H](CCCCN)NC(=S)Nc2ccc(O[C@H]3O[C@@H](C)[C@@H](O)[C@@H](OC)[C@@H]3O)cc2)C(=O)OCc2c1cc1n(c2=O)Cc2c-1nc1cc3c(cc1c2CN1CCN(C)CC1)OCCO3 [Example 5.1, 20(S)-7-[4-(Methylpiperazino)methy]-10,11-(ethylenedioxy)-20-O-{N^α-[O-(3-O-methyl-β-L-fucopyranosyl)4-hydroxy-phenylamino-thiocarbonyl-lysyl-leucyl}-camptothecin, hydrochloride] | 200 nM | 70 nM | 40 nM | 
CCc1c2c(nc3ccccc13)-c1cc3c(c(=O)n1C2)COC(=O)[C@@]3(CC)OC(=O)[C@H](C)NC(=O)[C@H](CCCCNC(=S)Nc1ccc(OC2O[C@@H](C)[C@@H](O)[C@@H](OC)[C@@H]2O)cc1)NC(=S)Nc1ccc(OC2O[C@@H](C)[C@@H](O)[C@@H](OC)[C@@H]2O)cc1 (stereo partly drawn) [Example 1.1, 20(S)-7-Ethyl-20-O-{N^α, N^ε-bis-[O-(3-O-methyl-β-L-fucopyranosyl)-4-hydroxy-phenylamino-thiocarbony]-lysyl-alanyl}-camptothecin] | 30 nM | 15 nM | 10 nM | Relative body weight on day 7 [1, 7]: 98 % of day 0; Relative tumour volume on day 14 [1, 7]: 32 % of day 0; Survival time [1, 7]: >21 days (4×) and 13 days; Relative body weight on day 7 [1, 8]: 95 % of day 0; Relative tumour volume on day 14 [1, 8]: 0.1 % of day 0; Survival time [1, 8]: >21 days; MTD at 3 days [2]: 12.5 mg/kg/day
CC[C@@]1(O)C(=O)OCc2c1cc1n(c2=O)Cc2cc3c(N)cccc3nc2-1 [9-amino-camptothecin] |  |  |  | IC50, inhibition of the CSF-induced proliferation of mouse bone marrow stem cells [3]: 1 ng/mL
CCC1(OC(=O)C(C)NC(=O)[C@H](CCCCN)NC(=S)Nc2ccc(OC3OC(C)C(O)C(OCC(=O)O)C3O)cc2)C(=O)OCc2c1cc1n(c2=O)Cc2cc3cc4c(cc3nc2-1)OCO4 (stereo partly drawn) [Example 2.3, 20(S)-10,11-Methylenedioxy-20-O-{N^α-[O-(3-O-carboxymethyl-β-L-fucopyranosyl)-4-hydroxy-phenylamino-thiocarbonyl]-lysyl-alanyl}-camptothecin, hydrochloride] | 9 nM | 6 nM | 3 nM | 
CCC1(OC(=O)[C@H](C)NC(=O)[C@H](CCCCNC(=S)Nc2ccc(OC3O[C@@H](C)[C@@H](O)[C@@H](OC)[C@@H]3O)cc2)NC(=S)Nc2ccc(OC3O[C@@H](C)[C@@H](O)[C@@H](OC)[C@@H]3O)cc2)C(=O)OCc2c1cc1n(c2=O)Cc2cc3cc4c(cc3nc2-1)OCO4 (stereo partly drawn) [Example 2.1, 20(R,S)-10,11-Methylenedioxy-20-O-{N^α,N^ε-bis-[O-(3-O-methyl-β-L-fucopyranosyl)-4-hydroxy-phenylamino-thiocarbonyl]-lysyl-alanyl}-camptothecin] | 15 nM | 7 nM | 5 nM | 
CC[C@@]1(OC(=O)[C@H](C)NC(=O)[C@H](CCCCNC(=S)Nc2ccc(OC3O[C@@H](C)[C@@H](O)[C@@H](OC)[C@@H]3O)cc2)NC(=S)Nc2ccc(OC3O[C@@H](C)[C@@H](O)[C@@H](OC)[C@@H]3O)cc2)C(=O)OCc2c1cc1n(c2=O)Cc2cc3c(N)cccc3nc2-1 (stereo partly drawn) [Example 3.1, 20(S)-9-Amino-20-O-{N^α,N^ε-bis-[O-(3-O-methyl-β-L-fucopyranosyl)4-hydroxy-phenylamino-thiocarbonyl]-lysyl-alanyl}-camptothecin] | 150 nM | 10 nM | 8 nM | 
CC[C@@]1(OC(=O)[C@H](CC(C)C)NC(=O)[C@H](CCCCN)NC(=S)Nc2ccc(O[C@H]3O[C@@H](C)[C@@H](O)[C@@H](OC)[C@@H]3O)cc2)C(=O)OCc2c1cc1n(c2=O)Cc2cc3cc4c(cc3nc2-1)OCO4 [Example 2.4, 20(S)-10,11-Methylenedioxy-20-O-{N^α-[O-(3-O-methyl-β-L-fucopyranosyl)-4-hydroxy-phenylamino-thiocarbonyl]-lysyl-leucyl}-camptothecin, hydrochloride] | 10 nM | 5 nM | 3 nM | 
CCc1c2c(nc3ccccc13)-c1cc3c(c(=O)n1C2)COC(=O)C3(CC)OC(=O)[C@@H](NC(=O)[C@H](CCCCN)NC(=S)Nc1ccc(OC2OC(C)C(O)C(OC)C2O)cc1)C(C)C (stereo partly drawn) [Example 1.5, 7-Ethyl-20-O-{N^α-[O-(3-O-methyl-β-L-fucopyranosyl)-4-hydroxyl-phenyl-amino-thiocarbonyl]-lysyl-valyl)-camptothecin, hydrochloride] | 300 nM | 100 nM | 60 nM | 
CCc1c2c(nc3ccccc13)-c1cc3c(c(=O)n1C2)COC(=O)[C@]3(O)CC [7-ethyl-camptothecin] |  |  |  | IC50, inhibition of the CSF-induced proliferation of mouse bone marrow stem cells [3]: 0.002 ng/mL
CC[C@@]1(OC(=O)[C@H](C)NC(=O)[C@H](CCCCNC(=S)Nc2ccc(OC3O[C@@H](C)[C@@H](O)[C@@H](OC)[C@@H]3O)cc2)NC(=S)Nc2ccc(OC3O[C@@H](C)[C@@H](O)[C@@H](OC)[C@@H]3O)cc2)C(=O)OCc2c1cc1n(c2=O)Cc2c-1nc1ccccc1c2COC(=O)[C@H](C)NC(=O)[C@H](CCCCNC(=S)Nc1ccc(OC2O[C@@H](C)[C@@H](O)[C@@H](OC)[C@@H]2O)cc1)NC(=S)Nc1ccc(OC2O[C@@H](C)[C@@H](O)[C@@H](OC)[C@@H]2O)cc1 (stereo partly drawn) [Example 4.1, 20(S)-7-{N^α,N^ε-bis-[O-(3-O-Methyl-β-L-fucopyranosyl)-4-hydroxy-phenylamino-thiocarbonylmino-thiocarbonyl]-lysyl-alanyloxymethyl}-20-O-{N^α,N^ε-bis-[O-(3-O-methyl-β-L-fucopyranosyl)-4-hydroxy-phenylamino-thiocarbonyl]-lysyl-alanyl}-camptothecin] |  |  |  | IC50 (B16F10; Mus musculus, B16-F10, read-out: IC50 B16F10): 300 nM; IC50 (SW 480; Homo sapiens, SW480, read-out: IC50 SW 480): 40 nM; IC50 (HT 29; Homo sapiens, HT-29, read-out: IC50 HT 29): 40 nM
CCc1c2c(nc3ccc(O)cc13)-c1cc3c(c(=O)n1C2)COC(=O)C3(CC)OC(=O)[C@@H](NC(=O)[C@H](CCCCN)NC(=S)Nc1ccc(OC2OC(C)C(O)C(OC)C2O)cc1)C(C)C (stereo partly drawn) [Example 6.1, 7-Ethyl-10-hydroxy-20-O-{N^α-[O-methyl-β-L-fucopyranosyl)-4-hydroxy-phenylamino-thiocarbonyl]-lysyl-valyl}-camptothecin, hydrochloride] | 3000 nM | 150 nM | 200 nM | 
